Results on 27 molecules are retold here after patent publication US11478466B2, “Small molecule promoting osteoblast differentiation” (Cornell University, priority 2019, dated 2022).

The subject of the experiment is alkaline phosphatase (ALP). As to conditions: for RFU Score Threshold ≥ 800 / Fluorescence Z Score Threshold ≥ 10 / NPA Score Threshold ≥ 5.0 (normalized percent activation): primary screen, 10 μM, C2C12, 4 days; for RFU Score Threshold ≥ 800: Ex 450/Em 580 nm, rank in brackets not taken; for Fluorescence Z Score Threshold ≥ 10: Z score on DMSO control wells; for NPA Score Threshold ≥ 5.0 (normalized percent activation): normalized against rhBMP4 positive and DMSO negative controls.

Excerpt: To identify small-molecule activators of osteoblast differentiation, we measured ALP activity using a fluorescent emission assay as a reporter for enzymatic digestion of ALP substrate in lysates derived from C2C12 myoblasts. […] Therefore, before screening, the assay was calibrated using recombinant human BMP4 protein as a positive control. Compounds were robotically deposited onto 384-well plates and then overlaid by C2C12 cells for a 4-day culture period, followed by lysis and fluorescent substrate assays (FIG. 1A; Table 1). To ensure uniformity, C2C12 cells were maintained in normal culture medium containing 10% fetal bovine serum, and lysis and substrate addition achieved using a microplate multidrop device. The primary screen (Table 2) encompassed greater than 47,000 small molecules tested at a final concentration of 10 μM.
For the primary screen, library compounds were distributed onto 384-well microplates (Greiner Bio-One 781091) at a final concentration of 10 μM in culture medium using a Perkin Elmer Janus automated workstation and WinPrep Version 4.8.3.315. Positive (rhBMP4, 1 ng/ml, R&D Systems) and negative controls (DMSO, 0.2%) were manually added to each plate by multichannel pipet. C2C12 cells were seeded onto compounds and controls at a density of 2000/well using a Thermo Multidrop Combi reagent dispenser and cultured for 4 days at 37° C., 5% CO2. Culture medium was aspirated using a BioTek EL406 plate washer and cells were lysed in RIPA buffer (Millipore 20-188) at ambient temperature for 10 minutes. 10 μl fluorescent alkaline phosphatase substrate (AttoPhos, Promega S1000) was added to lysates and incubated an additional 10 minutes before measuring the fluorescence (Excitation 450 nm/Emission 580 nm) on a BioTek Synergy Neo2 stacking microplate reader. Plates were processed and relative fluorescence raw values measured in stacks of 10-20. The data were processed using Collaborative Drug Discovery web-based software (CDD Vault) to determine Z score calculated on DMSO control wells and percent activation normalized against positive and negative controls (NPA). Cherry-picked hit candidates were re-tested in concentration response experiments, from which 4 candidates were chosen and purchased for further testing from either ChemBridge or Enamine, based on availability.
We also purchased a library of 154 structural chemical analogs assembled by ChemBridge Corp. from available screening library compounds.

With `c1ccc2c(c1)nc(NC1CCCC1)c1nncn12` [RU-0007138], the “RFU Score Threshold ≥ 800” value is “Below Threshold”, the “Fluorescence Z Score Threshold ≥ 10” value is listed as 17.92 (10) and the “NPA Score Threshold ≥ 5.0 (normalized percent activation)” value is recorded as “Below Threshold”.
Consider `COC(=O)c1ccc(NC(=O)c2c3c(nn2C2CCS(=O)(=O)C2)CCC3)cc1` (stereo not shown) [RU-0159762], for which the “RFU Score Threshold ≥ 800” value is reported as 855 (22), the “Fluorescence Z Score Threshold ≥ 10” value is 21.33 (6) and the “NPA Score Threshold ≥ 5.0 (normalized percent activation)” value is on record as “Below Threshold”.
Taken in the same sequence, the figures for `CC1(C)C(=O)NCCN1C(=O)/C=C(/c1ccc(Cl)cc1)C(F)(F)F` [RU-0213635] were 1170 (5), 15.00 (14) and “Below Threshold”.
Taken in the same sequence, the figures for `Cc1cc(C(=O)NC2(C#N)CC2)ccc1NC(=O)CC(C)C` [RU-0213672] were 1040 (9), 12.15 (20) and “Below Threshold”.
Taken in the same sequence, the figures for `CCC(C)(C)C(=O)N1CCC(CO)(CCOc2ccccc2)CC1` [RU-0220454] were 811 (31), “Below Threshold” and “Below Threshold”.
For the molecule `Cc1ccc(CN2CCN(Cc3ccccc3CO)CC2)n1-c1cccnc1` [RU-0221380], the “RFU Score Threshold ≥ 800” value is listed as 922 (13), the “Fluorescence Z Score Threshold ≥ 10” value is on record as 16.89 (11) and the “NPA Score Threshold ≥ 5.0 (normalized percent activation)” value is listed as “Below Threshold”.
Taken in the same sequence, the figures for `CN1CCC2(CC1)CN(C(=O)COCC1CCCO1)CCCN2C` (stereo not shown) [RU-0224115] were 900 (17), “Below Threshold” and “Below Threshold”.
Regarding `O=C(c1ccc2c(c1)OCO2)C1CCCN(C(=O)c2cnn(Cc3ccccc3)c2)C1` (stereo not shown) [RU-0227215], the “RFU Score Threshold ≥ 800” value is listed as 1310 (4), the “Fluorescence Z Score Threshold ≥ 10” value is 27.39 (4) and the “NPA Score Threshold ≥ 5.0 (normalized percent activation)” value is given as “Below Threshold”.
With `OCc1ccccc1-c1ccc(NC2CCCC2)nn1` [RU-0227303], the “RFU Score Threshold ≥ 800” value is given as “Below Threshold”, the “Fluorescence Z Score Threshold ≥ 10” value was 13.68 (18) and the “NPA Score Threshold ≥ 5.0 (normalized percent activation)” value is “Below Threshold”.
Consider `COc1cccc(C2CCN(c3ncnc4c3CCNC4)C2)c1OC` (stereo not shown) [RU-0227959], for which the “RFU Score Threshold ≥ 800” value is on record as 815 (30), the “Fluorescence Z Score Threshold ≥ 10” value is listed as “Below Threshold” and the “NPA Score Threshold ≥ 5.0 (normalized percent activation)” value was “Below Threshold”.
With `Cc1ccccc1N1CCN(C(=O)c2ccc(C#CC(C)(C)O)o2)C(C)C1` (stereo not shown) [RU-0228950], the “RFU Score Threshold ≥ 800” value is listed as 921 (14), the “Fluorescence Z Score Threshold ≥ 10” value is 15.58 (13) and the “NPA Score Threshold ≥ 5.0 (normalized percent activation)” value is on record as “Below Threshold”.
Taken in the same sequence, the figures for `COc1ccc(-n2c(Cc3cccnc3)n[nH]c2=O)c(C)c1` [RU-0230205] were 1060 (8), 19.99 (7) and “Below Threshold”.
Taken in the same sequence, the figures for `CCCc1ccc(-c2ccc(C(=O)N3C[C@@H](N)C[C@H]3C(=O)NC)cc2)cc1` [RU-0232318] were 804 (35), “Below Threshold” and “Below Threshold”.
Taken in the same sequence, the figures for `Cc1nc[nH]c1CN1CCOc2c(O)cc(-c3cccc(Cl)c3)cc2C1` [RU-0236543] were 821 (27), “Below Threshold” and “Below Threshold”.
Turning to `O[C@@H]1CNCC[C@H]1CNCc1ccccc1-c1ccccc1` [RU-0236855], the “RFU Score Threshold ≥ 800” value is reported as 810 (32), the “Fluorescence Z Score Threshold ≥ 10” value is “Below Threshold” and the “NPA Score Threshold ≥ 5.0 (normalized percent activation)” value is “Below Threshold”.
For `CSc1ncc(C(=O)NCc2cc(C)cc3c(C)c(C)[nH]c23)cn1` [RU-0239453], the “RFU Score Threshold ≥ 800” value was 809 (33), the “Fluorescence Z Score Threshold ≥ 10” value is reported as “Below Threshold” and the “NPA Score Threshold ≥ 5.0 (normalized percent activation)” value is “Below Threshold”.
As to `CCC(OC)C(=O)NCc1ccc2[nH]c(-c3ccccc3F)c(C)c2c1` (stereo not shown) [RU-0244068], the “RFU Score Threshold ≥ 800” value is 836 (26), the “Fluorescence Z Score Threshold ≥ 10” value is reported as “Below Threshold” and the “NPA Score Threshold ≥ 5.0 (normalized percent activation)” value is “Below Threshold”.
Regarding `Cc1ccc(OCCN(C)Cc2ccncc2)c(C)c1` [RU-0244443], the “RFU Score Threshold ≥ 800” value was 818 (29), the “Fluorescence Z Score Threshold ≥ 10” value is “Below Threshold” and the “NPA Score Threshold ≥ 5.0 (normalized percent activation)” value is “Below Threshold”.
As to `O=C(N[C@H]1CN[C@H](C(=O)NCCCn2ccnc2)C1)c1cccc(Cl)c1` [RU-0245007], the “RFU Score Threshold ≥ 800” value is on record as 993 (12), the “Fluorescence Z Score Threshold ≥ 10” value is 14.31 (17) and the “NPA Score Threshold ≥ 5.0 (normalized percent activation)” value is “Below Threshold”.
Taken in the same sequence, the figures for `c1ccc(CC2CCN(Cc3cc4n(n3)CCCNC4)C2)cc1` (stereo not shown) [RU-0246723] were 873 (20), 10.91 (23) and “Below Threshold”.
For the molecule `Cc1nc(CCN)cc(N2CCCC2c2nonc2C)n1` (stereo not shown) [RU-0250475], the “RFU Score Threshold ≥ 800” value was 879 (19), the “Fluorescence Z Score Threshold ≥ 10” value was “Below Threshold” and the “NPA Score Threshold ≥ 5.0 (normalized percent activation)” value is recorded as “Below Threshold”.
As to `CN(Cc1cccc2ncccc12)CC1CCOC1` (stereo not shown) [RU-0252111], the “RFU Score Threshold ≥ 800” value is 1010 (10), the “Fluorescence Z Score Threshold ≥ 10” value was 16.48 (12) and the “NPA Score Threshold ≥ 5.0 (normalized percent activation)” value is given as “Below Threshold”.
Taken in the same sequence, the figures for `CCCc1nc(C)c(CNC(=O)C2CCOC2)s1` (stereo not shown) [RU-0254439] were “Below Threshold”, 14.37 (16) and “Below Threshold”.
Turning to `CCOC(=O)c1n[nH]cc1[C@@H]1C[C@H](NC(C)=O)C[C@H](CC(C)C)O1` [RU-0257787], the “RFU Score Threshold ≥ 800” value is on record as “Below Threshold”, the “Fluorescence Z Score Threshold ≥ 10” value is reported as 12.09 (21) and the “NPA Score Threshold ≥ 5.0 (normalized percent activation)” value is reported as “Below Threshold”.
Turning to `Cc1cccc(-c2ncc(CN3CCCC(Cn4ccnc4C)C3)cn2)c1` (stereo not shown) [RU-0261573], the “RFU Score Threshold ≥ 800” value is 857 (21), the “Fluorescence Z Score Threshold ≥ 10” value is 10.31 (24) and the “NPA Score Threshold ≥ 5.0 (normalized percent activation)” value is “Below Threshold”.
Taken in the same sequence, the figures for `CCNC(=O)N1CCc2c(cnc(C)c2-c2noc(-c3ccc(C)cc3)n2)C1` [RU-0265172] were 840 (25), 18.70 (9) and “Below Threshold”.
As a reminder, the EC50 is the concentration giving half of the maximal effect. In the case of “N-(3-isoquinolin-5-ylbenzyl)propanamide [RU-0248250]”, the “RFU Score Threshold ≥ 800” value is listed as 1000 (11), the “Fluorescence Z Score Threshold ≥ 10” value is on record as 24.29 (5) and the “NPA Score Threshold ≥ 5.0 (normalized percent activation)” value is listed as “Below Threshold”. Also, under “read-out: Measured EC50, compounds validated in secondary screen, C2C12”, the EC50 is more than 40 µM.
